# Laboratory results taken from US7932262B2 (Novartis AG, priority 2006, dated 2011).
# Read-outs that look alike come from different tables or passages of the source.
# Experiments:
# [1] = system: A2780 cells; experiment: Cell Proliferation Assay (Cell Titer Glo), A2780; assay type: cell-based; conditions: Homo sapiens, read-out: CPEC50 A2780
# Outline: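 Following a 3-day compound exposure (37° C., 5% CO2) of A2780 or PC3MM cells plated at 1000 per well, viability was measured by Cell Titer Glo luminescence in fresh medium, read 10 min after reagent addition.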
# [2] = molecular target: T1, PDK1 kinase (Homo sapiens, UniProt O15530); experiment: PDK1 Kinase Alpha Screen Assay; assay type: biochemical; conditions: read-out: PDK1 IC50
# T1 sequence (O15530 1-556): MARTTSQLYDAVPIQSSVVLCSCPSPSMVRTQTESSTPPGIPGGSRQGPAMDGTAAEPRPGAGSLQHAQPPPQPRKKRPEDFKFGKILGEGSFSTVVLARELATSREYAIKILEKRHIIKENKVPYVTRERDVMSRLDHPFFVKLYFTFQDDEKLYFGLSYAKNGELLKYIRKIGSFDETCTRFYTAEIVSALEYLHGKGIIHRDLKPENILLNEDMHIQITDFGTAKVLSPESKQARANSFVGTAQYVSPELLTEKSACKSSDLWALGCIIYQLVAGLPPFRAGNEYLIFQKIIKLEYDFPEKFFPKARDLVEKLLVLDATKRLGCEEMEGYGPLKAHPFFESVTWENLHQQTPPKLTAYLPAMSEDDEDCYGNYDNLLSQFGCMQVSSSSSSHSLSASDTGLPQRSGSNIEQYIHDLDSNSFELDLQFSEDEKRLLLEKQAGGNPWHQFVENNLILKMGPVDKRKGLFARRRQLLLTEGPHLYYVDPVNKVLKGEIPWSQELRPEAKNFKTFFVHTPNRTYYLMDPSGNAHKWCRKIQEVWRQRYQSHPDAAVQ
# Outline: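 PDK1, 10 uM ATP, 50 nM biotin-PDK1-4 peptide; 50 mM Tris pH 7.5, 10 mM MgCl2, 0.1% BSA, 0.01% Tween-20, 2 mM DTT, 2.5% DMSO; 3-18 h. EDTA stop; AlphaScreen, phospho-Ser/Thr antibody, overnight RT.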
# [3] = system: PC-3 cells; experiment: Cell Proliferation Assay (Cell Titer Glo), PC-3 cell line; assay type: cell-based; conditions: Homo sapiens
# Outline: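 Cell Titer Glo luminescence, read after fresh medium replaced the dosing medium, gave viability of PC-3 cells plated at 1000 cells/well. Compounds, 1:3 serially diluted in DMSO at 500× and then in medium, were added after 3-5 h adhesion and incubated 3 days at 37° C.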
# [4] = Cell Proliferation Assay, A2780
# [5] = PC-3, Cell Proliferation Assay, PC3, read-out: CPEC50 PC3
# [6] = cell proliferation, A2780 cells
IC50 [2] [µM],"EC50 [1, 4] [µM]",IC50 ([2]; PDK1 Kinase Alpha Screen Assay) [µM],"EC50 [3, 5] [µM]",EC50 ([1]; A2780 cells) [µM],SMILES,other results
< 5,,,,,"CC(C)N1CCC(Oc2ccc3cnc(Nc4ccc(S(=O)(=O)N5CCOCC5)cc4)nc3c2)CC1 [Compound 54, [7-(1-Isopropyl-piperidin-4-yloxy)-quinazolin-2-yl]-[4-(morpholine-4-sulfonyl)-phenyl]-amine]","EC50 ([1]; 72 h, A2780 cells, 3 days incubation): < 5 µM; EC50 ([3]; PC-3, 72 h, PC-3 cells, 3 days incubation, read-out: CP EC50 PC3): < 5 µM"
,< 5,< 5,< 5,,"Cc1ccc(OC2CCNCC2)c2nc(Nc3ccc(C(=O)NC4CC4)cc3)ncc12 [Compound 364, N-cyclopropyl-4-(5-methyl-8-(piperidin-4-yloxy)quinazolin-2-ylamino)benzamide]",
,< 5,< 5,< 5,,"NS(=O)(=O)c1ccc(Nc2ncc3cccc(Oc4ccccc4)c3n2)cc1 [Compound 405, 4-(8-phenoxyquinazolin-2-ylamino)benzenesulfonamide]",
,< 5,< 5,< 5,,"NS(=O)(=O)c1ccc(Nc2ncc3cccc(OCC4CCNCC4)c3n2)cc1 [Compound 509, 4-(8-(piperidin-4-ylmethoxy)quinazolin-2-ylamino)benzenesulfonamide]",
,< 5,< 5,< 5,,"CC(C)Oc1cccc2cnc(Nc3ccc(S(N)(=O)=O)cc3)nc12 [Compound 511, 4-(8-isopropoxyquinazolin-2-ylamino)benzenesulfonamide]",
,< 5,< 5,< 5,,"NS(=O)(=O)c1ccc(Nc2ncc3cccc(OC4CCCC4)c3n2)cc1 [Compound 512, 4-(8-(cyclopentyloxy)quinazolin-2-ylamino)benzenesulfonamide]",
,< 5,< 5,< 5,,"CC(C)N1CCC(COc2cccc3cnc(Nc4ccc(S(N)(=O)=O)cc4)nc23)CC1 [Compound 519, 4-(8-((1-isopropylpiperidin-4-yl)methoxy)quinazolin-2-ylamino)benzenesulfonamide]",
,5 to 10,,< 5,,"CC(C)Oc1cccc2cnc(Nc3ccc(C(N)=O)cn3)nc12 [Compound 520, 6-(8-isopropoxyquinazolin-2-ylamino)nicotinamide]",
,5 to 10,,< 5,,"CC(C)Oc1cccc2cnc(Nc3ccccn3)nc12 [Compound 521, 8-isopropoxy-N-(pyridin-2-yl)quinazolin-2-amine]",
,< 5,< 5,< 5,,"c1csc(-c2cc3cnc(Nc4ccc(N5CCOCC5)cc4)nc3cc2OC2CCNCC2)n1 [Compound 645, N-(4-morpholinophenyl)-7-(piperidin-4-yloxy)-6-(thiazol-2-yl)quinazolin-2-amine]",
,< 5,< 5,< 5,,"C#Cc1cc2cnc(Nc3ccc(N4CCOCC4)cc3)nc2cc1OC1CCNCC1 [Compound 646, 6-Ethynyl-N-(4-morpholinophenyl)-7-(piperidin-4-yloxy)quinazolin-2-amine]",
,< 5,< 5,< 5,,"Cc1cc2cnc(Nc3ccc(N4CCOCC4)cc3)nc2cc1OC1CCNCC1 [Compound 647, 6-methyl-N-(4-morpholinophenyl)-7-(piperidin-4-yloxy)quinazolin-2-amine]",
,< 5,< 5,< 5,,"Cc1cc2cnc(Nc3ccc(C(=O)N4CCOCC4)cc3)nc2cc1OC1CCNCC1 [Compound 648, (4-(6-methyl-7-(piperidin-4-yloxy)quinazolin-2-ylamino)phenyl)(morpholino)methanone]",
,< 5,< 5,< 5,,"O=C(c1ccc(Nc2ncc3cc(-c4nccs4)c(OC4CCNCC4)cc3n2)cc1)N1CCOCC1 [Compound 649, morpholino(4-(7-(piperidin-4-yloxy)-6-(thiazol-2-yl)quinazolin-2-ylamino)phenyl)methanone]",
,,< 5,,,"Nc1ccc(-c2ccc3cnc(Nc4ccc(S(N)(=O)=O)cc4)nc3c2-c2ccc(N)nc2)cn1 [Compound 900, 4-(7,8-bis(6-aminopyridin-3-yl)quinazolin-2-ylamino)benzenesulfonamide]","EC50 [1, 6]: 5 to 10 µM"
,,< 5,,,"NS(=O)(=O)c1ccc(Nc2ncc3cccc(CNCc4ccccc4)c3n2)cc1 [Compound 901, 4-(8-((benzylamino)methyl)quinazolin-2-ylamino)benzenesulfonamide]","EC50 [1, 6]: < 5 µM"
,,< 5,,,"NS(=O)(=O)c1ccc(Nc2ncc3cccc(CN4CCCC4)c3n2)cc1 [Compound 903, 4-(8-(pyrrolidin-1-ylmethyl)quinazolin-2-ylamino)benzenesulfonamide]","EC50 [1, 6]: < 5 µM"
,,< 5,,,"NS(=O)(=O)c1ccc(Nc2ncc3ccc(-c4ccc(F)nc4)c(-c4ccc(F)nc4)c3n2)cc1 [Compound 912, 4-(7,8-bis(6-fluoropyridin-3-yl)quinazolin-2-ylamino)benzenesulfonamide]","EC50 [1, 6]: < 5 µM"
< 5,,,,< 5,"CCN(CC)Cc1cccc2cnc(Nc3ccc(S(N)(=O)=O)cc3)nc12 [Compound 916, 4-(8-((diethylamino)methyl)quinazolin-2-ylamino)benzenesulfonamide]",
< 5,,,,< 5,"NS(=O)(=O)c1ccc(Nc2ncc3cccc(CNCc4cccnc4)c3n2)cc1 [Compound 917, 4-(8-((pyridin-3-ylmethylamino)methyl)quinazolin-2-ylamino)benzenesulfonamide]",
< 5,,,,5 to 10,"NS(=O)(=O)c1ccc(Nc2ncc3cccc(CNCCc4cnc[nH]4)c3n2)cc1 [Compound 918, 4-(8-((2-(1H-imidazol-5-yl)ethylamino)methyl)quinazolin-2-ylamino)benzenesulfonamide]",
< 5,,,,5 to 10,"NC(=O)C1CCN(Cc2cccc3cnc(Nc4ccc(S(N)(=O)=O)cc4)nc23)CC1 [Compound 919, 1-((2-(4-sulfamoylphenylamino)quinazolin-8-yl)methyl)piperidine-4-carboxamide]",
< 5,,,,< 5,NS(=O)(=O)c1ccc(Nc2ncc3cccc(CNC4CCOCC4)c3n2)cc1 [Compound 920],
< 5,,,,< 5,"NS(=O)(=O)c1ccc(Nc2ncc3cccc(CNC4CCCCC4)c3n2)cc1 [Compound 921, 4-(8-((cyclohexylamino)methyl)quinazolin-2-ylamino)benzenesulfonamide]",
< 5,,,,< 5,"NS(=O)(=O)c1ccc(Nc2ncc3cccc(CNCC4CCCO4)c3n2)cc1 (stereo not drawn) [Compound 922, 4-(8-(((tetrahydrofuran-2-yl)methylamino)methyl)quinazolin-2-ylamino)benzenesulfonamide]",
< 5,,,,< 5,"NS(=O)(=O)c1ccc(Nc2ncc3cccc(CN4CCc5ccccc5C4)c3n2)cc1 [Compound 923, 4-(8-((3,4-dihydroisoquinolin-2(1H)-yl)methyl)quinazolin-2-ylamino)benzenesulfonamide]",
< 5,,,,< 5,"CC(=O)N1CCN(Cc2cccc3cnc(Nc4ccc(S(N)(=O)=O)cc4)nc23)CC1 [Compound 924, 4-(8-((4-acetylpiperazin-1-yl)methyl)quinazolin-2-ylamino)benzenesulfonamide]",
